Assay results published in patent publication US9708314B2, “Heterocyclic amide compound” (NISSAN CHEMICAL INDUSTRIES, LTD., priority 2013, dated 2017).

Assays:
Format in all cases: in vivo
[1] = test system: Scirpus juncoides; test: Test Example 1: herbicidal activity, application before weed generation in submerged conditions; settings: Application herbicide amount 320 g/ha; Seventeenth Table
Outline: (§1)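 Water-diluted emulsion formulation is applied onto flood water (4 cm deep) covering alluvial soil on the day weed seeds are sown, after transplanting 2.5 leaf stage rice. Rates are expressed per hectare. Injury or control is graded 0–5 three weeks later.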

[2] = test system: Monochoria vaginalis; test: as above; settings: Application herbicide amount 320 g/ha; Seventeenth Table
Outline: as §1

[3] = test system: Echinochloa oryzacola Vasing.; test: as above; settings: Application herbicide amount 320 g/ha; Seventeenth Table
Outline: as §1

[4] = test system: Amaranthus retroflexus; test: Test Example 4: herbicidal effect by application to foliage (diluvial soil, plastic box); settings: foliage application, 320 g/ha
Outline: (§2)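 Greenhouse plants (25° C. to 30° C., 14 d, diluvial soil) receive a foliar spray of water-diluted emulsifiable formulation at defined g/ha. Grading after 3 weeks uses a six-step herbicidal-ratio scale, with 4 covering 70% to <90% and 1 covering 5% to <20%.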

[5] = test system: Setaria viridis; test: as above; settings: foliage application, 320 g/ha
Outline: as §2

[6] = test system: Stellaria media; test: as above; settings: foliage application, 320 g/ha
Outline: as §2

[7] = test system: Alopecurus myosuroides; test: as above; settings: foliage application, 320 g/ha
Outline: as §2

[8] = test system: Digitaria ciliaris; test: as above; settings: foliage application, 320 g/ha
Outline: as §2

[9] = test system: Lolium multiflorum Lam.; test: as above; settings: foliage application, 320 g/ha
Outline: as §2

| Structure (SMILES) | B: Scirpus juncoides (herbicidal effect grade) [1] | C: Monochoria vaginalis (herbicidal effect grade) [2] | A: Echinochloa oryzicola Vasing. (herbicidal effect grade) [3] | N (Amaranthus retroflexus) herbicidal effect grade [4] | G (Setaria viridis) herbicidal effect grade [5] | P (Stellaria media) herbicidal effect grade [6] | J (Alopecurus myosuroides) herbicidal effect grade [7] | F (Digitaria ciliaris) herbicidal effect grade [8] | K (Lolium multiflorum Lam.) herbicidal effect grade [9] |
| --- | --- | --- | --- | --- | --- | --- | --- | --- | --- |
| Cc1cc(-c2nnc3c(C(=O)Nc4nnnn4C)ccc(C(F)(F)F)n23)n(C)n1 [2-062] | 5 (Herbicidal ratio of 90% or more (almost completely withered)) | 5 (Herbicidal ratio of 90% or more (almost completely withered)) | 5 (Herbicidal ratio of 90% or more (almost completely withered)) | 5 (Herbicidal ratio of 90% or more (almost completely withered)) | 5 (Herbicidal ratio of 90% or more (almost completely withered)) | 5 (Herbicidal ratio of 90% or more (almost completely withered)) | 4 (Herbicidal ratio of 70% or more and less than 90%) | 5 (Herbicidal ratio of 90% or more (almost completely withered)) | 5 (Herbicidal ratio of 90% or more (almost completely withered)) |
| COc1ccc(Cc2nnc3c(C(=O)Nc4nnnn4C)ccc(C(F)(F)F)n23)cc1 [2-065] | 4 (Herbicidal ratio of 70% or more and less than 90%) | 4 (Herbicidal ratio of 70% or more and less than 90%) | 5 (Herbicidal ratio of 90% or more (almost completely withered)) | 5 (Herbicidal ratio of 90% or more (almost completely withered)) | 5 (Herbicidal ratio of 90% or more (almost completely withered)) | 5 (Herbicidal ratio of 90% or more (almost completely withered)) | 3 (Herbicidal ratio of 40% or more and less than 70%) | 5 (Herbicidal ratio of 90% or more (almost completely withered)) | 3 (Herbicidal ratio of 40% or more and less than 70%) |
| CC(C)Nc1nnc2c(C(=O)Nc3nnnn3C)ccc(C(F)(F)F)n12 [2-066] | 5 (Herbicidal ratio of 90% or more (almost completely withered)) | 4 (Herbicidal ratio of 70% or more and less than 90%) | 5 (Herbicidal ratio of 90% or more (almost completely withered)) | 5 (Herbicidal ratio of 90% or more (almost completely withered)) | 5 (Herbicidal ratio of 90% or more (almost completely withered)) | 5 (Herbicidal ratio of 90% or more (almost completely withered)) | 3 (Herbicidal ratio of 40% or more and less than 70%) | 5 (Herbicidal ratio of 90% or more (almost completely withered)) | 3 (Herbicidal ratio of 40% or more and less than 70%) |
| Cn1nnnc1NC(=O)c1ccc(C(F)(F)F)n2c([S+](C)[O-])nnc12 (stereo not drawn) [2-067] | 4 (Herbicidal ratio of 70% or more and less than 90%) | 4 (Herbicidal ratio of 70% or more and less than 90%) | 5 (Herbicidal ratio of 90% or more (almost completely withered)) | 5 (Herbicidal ratio of 90% or more (almost completely withered)) | 5 (Herbicidal ratio of 90% or more (almost completely withered)) | 5 (Herbicidal ratio of 90% or more (almost completely withered)) | 4 (Herbicidal ratio of 70% or more and less than 90%) | 5 (Herbicidal ratio of 90% or more (almost completely withered)) | 4 (Herbicidal ratio of 70% or more and less than 90%) |
| CCCSc1nnc2c(C(=O)Nc3nnnn3C)ccc(C(F)(F)F)n12 [2-068] | 5 (Herbicidal ratio of 90% or more (almost completely withered)) | 4 (Herbicidal ratio of 70% or more and less than 90%) | 5 (Herbicidal ratio of 90% or more (almost completely withered)) | 5 (Herbicidal ratio of 90% or more (almost completely withered)) | 5 (Herbicidal ratio of 90% or more (almost completely withered)) | 5 (Herbicidal ratio of 90% or more (almost completely withered)) | 2 (Herbicidal ratio of 20% or more and less than 40%) | 5 (Herbicidal ratio of 90% or more (almost completely withered)) | 2 (Herbicidal ratio of 20% or more and less than 40%) |
| CCC[S+]([O-])c1nnc2c(C(=O)Nc3nnnn3C)ccc(C(F)(F)F)n12 (stereo not drawn) [2-069] | 5 (Herbicidal ratio of 90% or more (almost completely withered)) | 5 (Herbicidal ratio of 90% or more (almost completely withered)) | 5 (Herbicidal ratio of 90% or more (almost completely withered)) | 5 (Herbicidal ratio of 90% or more (almost completely withered)) | 5 (Herbicidal ratio of 90% or more (almost completely withered)) | 5 (Herbicidal ratio of 90% or more (almost completely withered)) | 3 (Herbicidal ratio of 40% or more and less than 70%) | 5 (Herbicidal ratio of 90% or more (almost completely withered)) | 3 (Herbicidal ratio of 40% or more and less than 70%) |
| CCCS(=O)(=O)c1nnc2c(C(=O)Nc3nnnn3C)ccc(C(F)(F)F)n12 [2-070] | 5 (Herbicidal ratio of 90% or more (almost completely withered)) | 5 (Herbicidal ratio of 90% or more (almost completely withered)) | 5 (Herbicidal ratio of 90% or more (almost completely withered)) | 5 (Herbicidal ratio of 90% or more (almost completely withered)) | 5 (Herbicidal ratio of 90% or more (almost completely withered)) | 5 (Herbicidal ratio of 90% or more (almost completely withered)) | 4 (Herbicidal ratio of 70% or more and less than 90%) | 5 (Herbicidal ratio of 90% or more (almost completely withered)) | 4 (Herbicidal ratio of 70% or more and less than 90%) |
| CC(C)CSc1nnc2c(C(=O)Nc3nnnn3C)ccc(C(F)(F)F)n12 [2-071] | 5 (Herbicidal ratio of 90% or more (almost completely withered)) | 5 (Herbicidal ratio of 90% or more (almost completely withered)) | 5 (Herbicidal ratio of 90% or more (almost completely withered)) | 5 (Herbicidal ratio of 90% or more (almost completely withered)) | 4 (Herbicidal ratio of 70% or more and less than 90%) | 5 (Herbicidal ratio of 90% or more (almost completely withered)) | 1 (Herbicidal ratio of 5% or more and less than 20%) | 5 (Herbicidal ratio of 90% or more (almost completely withered)) | 1 (Herbicidal ratio of 5% or more and less than 20%) |
| CCC(C)Sc1nnc2c(C(=O)Nc3nnnn3C)ccc(C(F)(F)F)n12 (stereo not drawn) [2-072] | 5 (Herbicidal ratio of 90% or more (almost completely withered)) | 5 (Herbicidal ratio of 90% or more (almost completely withered)) | 5 (Herbicidal ratio of 90% or more (almost completely withered)) | 5 (Herbicidal ratio of 90% or more (almost completely withered)) | 5 (Herbicidal ratio of 90% or more (almost completely withered)) | 5 (Herbicidal ratio of 90% or more (almost completely withered)) | 1 (Herbicidal ratio of 5% or more and less than 20%) | 5 (Herbicidal ratio of 90% or more (almost completely withered)) | 1 (Herbicidal ratio of 5% or more and less than 20%) |
| CC(C)c1nnc2c(C(=O)Nc3nnnn3-c3ccccc3)ccc(C(F)(F)F)n12 [2-073] | 3 (Herbicidal ratio of 40% or more and less than 70%) | 4 (Herbicidal ratio of 70% or more and less than 90%) | 4 (Herbicidal ratio of 70% or more and less than 90%) | 3 (Herbicidal ratio of 40% or more and less than 70%) | 1 (Herbicidal ratio of 5% or more and less than 20%) | 4 (Herbicidal ratio of 70% or more and less than 90%) | 0 (Herbicidal ratio of 5% or less (almost no effect)) | 1 (Herbicidal ratio of 5% or more and less than 20%) | 1 (Herbicidal ratio of 5% or more and less than 20%) |
